Laboratory results published in US10329542B2, “HBV RNAse H purification and enzyme inhibitors” (Saint Louis University, priority 2012, dated 2019).

Legend:
[1] = target: T1, HBV genotype D RNAseH (HRHPL) (Hepatitis B virus genotype D subtype ayw, UniProt P03156, INS679M); assay: Oligonucleotide-directed RNAseH cleavage assay, HBV genotype D; format: biochemical; settings: for Activity vs. HBV Biochemical vs. gtD: class by concentration giving inhibition (10, 20, 60 μM); for Residual activity at 10 uM, Genotype D: ± standard deviation, 3 to 7 replicates
T1 construct: HRHPL contains HBV genotype D (Genbank V01460) polymerase residues 684-845; made in house; host or cells: E. coli BL21 codon+
T1 sequence (P03156 680-832, added parts left off, stated change not applied): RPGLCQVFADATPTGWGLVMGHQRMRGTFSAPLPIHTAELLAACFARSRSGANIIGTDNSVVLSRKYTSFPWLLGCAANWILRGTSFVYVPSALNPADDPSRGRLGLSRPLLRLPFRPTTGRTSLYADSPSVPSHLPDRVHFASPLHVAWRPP
Protocol: (§1) For the oligonucleotide-directed RNAseH cleavage assay (Gong et al., 2001), 6 μl protein extract (typical protein concentration 2.8 mg/ml) was mixed with 0.5 μg internally ^32P-labeled DRF+ RNA (nucleotides 2401-2605 of the duck HBV genome plus 60 nucleotides of flanking sequences from pBluescript) and 3 μg oligonucleotide D2507- or its corresponding negative control D2526+ on ice in 20 μl under the conditions in Table 1. Some reactions in FIG. 5 employed oligonucleotide D2543M-Sal or its D2453+ negative control as indicated. The reactions were incubated at 42° C. for 90 min. and terminated by addition of Laemmli protein loading buffer and boiling. The samples were resolved by 12% SDS-PAGE, the gels were stained with Coomassie blue to monitor protein loading, and labeled RNA was detected by autoradiography. Candidate inhibitors were dissolved in DMSO and added at the indicated concentrations during assembly of the reactions. Control reactions lacking the compounds contained DMSO as a vehicle control. The RNAseH autoradiograms were scanned and quantified with ImageJ.
(§2) Oligonucleotide-directed RNAseH cleavage assays (Gong et al., 2001) were performed as described (Tavis et al., 2013). Briefly, HBV RNAseH extracts were mixed with a 264 nt-long internally ^32P-labeled RNA plus an excess of a complementary DNA oligonucleotide or its inverse-complement as a negative control in a final concentration of 65 mM Tris pH 8.0, 190 mM NaCl, 5 mM MgCl2, 5 mM dTT, 0.05% NP40, and 6% glycerol. βTJ was dissolved in DMSO and added at the indicated concentrations; the final concentration of DMSO in all reactions was 1%. The reactions were incubated at 42° C. for 90 min. and terminated by addition of Laemmli protein electrophoresis buffer. The samples were resolved by SDS-PAGE, labeled RNA was detected by autoradiography, the autoradiograms were scanned, and the RNA cleavage products were quantified with ImageJ (National Institutes of Health). IC50 values were calculated by non-linear regression using GraphPad Prism (GraphPad Software, Inc.).

[2] = system: HBV genotype C RNAseH; assay: Oligonucleotide-directed RNAseH cleavage assay, HBV genotype C; format: biochemical, Hepatitis B virus; settings: class by concentration giving inhibition (10, 20, 60 μM)
Protocol: as §1, with “ImageJ. The oligonucleotides were: D2526+([…]; SEQ ID NO:8), D2507-([…]; SEQ ID NO:9), D2453+([…]; SEQ ID NO:10), and D2543M-Sal ([…]; SEQ ID NO:11).” for “ImageJ.”
Incremental improvements were developed in extraction of the HBV RNAseH from the bacterial cell pellets since the data were generated for Examples 1 and 2. Key among these was shifting from using a cup sonicator to a probe sonicator and reducing the duration of the sonication period from 3×60 second bursts to 3×20 second bursts. When the […] genotype C clone that had inconsistent activity under the old extraction conditions (FIG. 6C) was isolated under these conditions, it became consistently and robustly active (FIG. 16).

[3] = system: HBV; assay: HBV genomic replication assays (Table 2); format: cell-based, Hepatitis B virus; settings: class by active concentration
Protocol: Huh7 cells were maintained in Dulbecco's modified Eagle's medium with 10% fetal bovine serum at 37° C. in 5% CO2. Cells were seeded into 60 mm dishes and transfected at 70% confluency with 2.6 μg of plasmids using TransIT-LT1 (Mirus, Inc.). Test compounds were added the morning following transfection at 10 or 50 μM, and fresh medium containing the compounds was provided every 1-2 days. Four or five days post-transfection HBV cores were isolated by lysis of the cells in 10 mM Tris pH 7.5, 1 mM EDTA, 0.25% NP40, 50 mM NaCl, and 8% sucrose followed by sedimentation through a 30% sucrose cushion as described (Travis, et al., 1998). Viral DNAs were isolated from cytoplasmic core particle preparations by proteinase K digestion followed by phenol/chloroform extraction as described (Gong et al., 2001). Duplicate aliquots of the nucleic acids were treated with 2 U E. coli DNAse-free RNAseH (Invitrogen) at 37° C. for 30 min. or were mock treated. The nucleic acid samples were resolved by electrophoresis on 1.2% agarose gels and detected by Southern blotting with ^32P-labeled HBV DNA as a probe. […]

[4] = system: HBV genotype H RNAseH; assay: Oligonucleotide-directed RNAseH cleavage assay, HBV genotype H; format: biochemical, Hepatitis B virus; settings: 10 μM; ± standard deviation, 3 to 7 replicates
Protocol: as §1, with “ImageJ. The oligonucleotides were: D2526+([…]; SEQ ID NO:8), D2507-([…]; SEQ ID NO:9), D2453+([…]; SEQ ID NO:10), and D2543M-Sal ([…]; SEQ ID NO:11).” for “ImageJ.”
as §2

[5] = target: T2, human RNAseH1 (Homo sapiens, UniProt O60930); assay: Oligonucleotide-directed RNAseH assay, recombinant human RNAseH1; format: biochemical; settings: for Activity vs. human RNAseH1: class by concentration giving inhibition (10, 20, 60 μM)
T2 construct: hexahistidine (N); made in house; host or cells: E. coli BL21 codon+
T2 sequence (O60930 1-286): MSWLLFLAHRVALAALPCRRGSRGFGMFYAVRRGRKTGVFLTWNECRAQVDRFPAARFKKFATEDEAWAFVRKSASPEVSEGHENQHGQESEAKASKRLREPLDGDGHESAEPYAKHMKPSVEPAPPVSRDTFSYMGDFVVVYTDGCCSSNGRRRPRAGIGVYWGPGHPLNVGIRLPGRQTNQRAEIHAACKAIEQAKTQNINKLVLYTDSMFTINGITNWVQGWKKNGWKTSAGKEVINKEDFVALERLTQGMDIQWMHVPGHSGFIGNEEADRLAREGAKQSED
Protocol: as §1, with “ImageJ. The oligonucleotides were: D2526+([…]; SEQ ID NO:8), D2507-([…]; SEQ ID NO:9), D2453+([…]; SEQ ID NO:10), and D2543M-Sal ([…]; SEQ ID NO:11).” for “ImageJ.”
Therefore, the inventors cloned the human RNAseH1 with an N-terminal hexahistidine tag, expressed it in E. coli, and purified the protein by nickel affinity chromatography. […] This enzyme was active in the oligonucleotide-directed and fluorescent RNAseH assays (FIG. 10B and data not shown). To determine how inhibition of human RNAseH1 compared to inhibition of the HBV RNAseH, the inventor titrated the RNAaseH1 enzyme to yield similar levels of activity as the HBV enzyme, and then the inventor directly compared the ability of compounds #8-12 to inhibit human RNAseH1 and HRHPL at 10 μM. […] Therefore, it is possible to inhibit the HBV RNAseH without inhibiting human RNAseH1.
as §2

[6] = target: T3, chimeric HBV:HIV RNAseH HHC1 (Hepatitis B virus genotype D subtype ayw, UniProt P03156, DELINS787-795[…]/INS679M); assay: Oligonucleotide-directed RNAseH cleavage assay, chimeric HHC1; format: biochemical; settings: 10 μM; ± standard deviation, 3 to 7 replicates
T3 construct: HHC1 is an HRHPL derivative; made in house; host or cells: E. coli BL21 codon+
T3 sequence (P03156 680-786, added parts left off, stated change not applied): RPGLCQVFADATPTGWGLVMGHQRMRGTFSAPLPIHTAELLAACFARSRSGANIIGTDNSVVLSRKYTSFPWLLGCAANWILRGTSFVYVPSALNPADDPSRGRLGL
Excerpt: pCMV-HBV-LE-(CMV-HBV) is an HBV over-length genomic expression vector containing 1.2 copies of the HBV(adw2) genome (Genbank X02763.1) downstream of the CMV promoter cloned into pBS (Promega). Surface protein expression from this vector is ablated by mutating the preS and S open reading frames. pCMV-HBV(genotype D) is an analogous HBV genomic expression construct and was a gift from Dr. Shuping Tong (Brown University). For bacterial expression, codon-optimized cDNA sequences for HRHPL (genotypes A, B, C, D, and H), and noncodon-optimized sequences for HHC1 and HHC2 were cloned by gene synthesis (Genscript) between the NcoI and EcoRI sites into pTrcHis2B (Invitrogen) with a C-terminal hexahistidine tag. HRHPL contains HBV genotype D (Genbank V01460) polymerase residues 684-845. HHC1 is an HRHPL derivative in which HBV polymerase residues 800-808 were replaced with HIV residues corresponding to the RNAseH helix D ([…]; SEQ ID NO:6). HHC2 is an HRHPL derivative in which HBV polymerase residues 800-845 were replaced with HIV residues corresponding to the RNAseH helix D to the C-terminus ([…]; SEQ ID NO:7). The human RNAseH1 gene (NP_002927.2) was cloned with an N-terminal hexahistidine-tag between the BamHI and XhoI sites of pRsetB (Invitrogen) by gene synthesis.
as §1, with “ImageJ. The oligonucleotides were: D2526+([…]; SEQ ID NO:8), D2507-([…]; SEQ ID NO:9), D2453+([…]; SEQ ID NO:10), and D2543M-Sal ([…]; SEQ ID NO:11).” for “ImageJ.”

| SMILES | Activity vs. HBV Biochemical vs. gtD [1] | Activity vs. HBV Biochemical vs. gtC [2] | Activity vs. HBV Genomic Replication [3] | Residual activity at 10 uM, Genotype H [4] [Percent DMSO control] | Inhibition of human RNAseH1 ([5]; 10 μM, compared directly with HRHPL) | Activity vs. human RNAseH1 [5] | Residual activity at 10 uM, Genotype D [1] [Percent DMSO control] | Residual activity at 10 uM, HHC1 [6] [Percent DMSO control] |
| --- | --- | --- | --- | --- | --- | --- | --- | --- |
| C[C@@H]1CCO[C@H]2Cn3cc(C(=O)NCc4ccc(F)cc4F)c(=O)c(O)c3C(=O)N12 [Compound 73, Dolutegravir, reference compound] | + (+ inhibition at 60 μM) | − (− no inhibition at 60 μM) |  |  |  |  |  |  |
| Cc1cc(C)c(C#N)c(=O)[nH]1 [Compound 20] | − (− no inhibition at 60 μM) | − (− no inhibition at 60 μM) |  |  |  |  |  |  |
| CCn1cc(C(=O)O)c(=O)c2cc(F)c(N3CCNCC3)nc21 [Compound 71, Enoxacin, reference compound] | − (− no inhibition at 60 μM) | − (− no inhibition at 60 μM) |  |  |  |  |  |  |
| O=c1c(O)c(-c2cc(O)c(O)c(O)c2)oc2cc(O)cc(O)c12 [Compound 9] | ++ (++ inhibition at 20 μM) |  | − (− no activity at 60 μM) | 66 ± 23 | inhibited it weakly | ++ (++ inhibition at 20 μM) | 33 ± 10 | 58 ± 15 |
| CC(C)n1cc(C(=O)O)c(=O)c2ccccc21 [Compound 64] | + (+ inhibition at 60 μM) | − (− no inhibition at 60 μM) |  |  |  |  |  |  |
| O=c1cc2oc3cc(O)c(O)cc3c(-c3ccccc3)c-2cc1O [Compound 31] | +++ (+++ inhibition at 10 μM) |  | − (− no activity at 60 μM) | 50 ± 10 |  | +++ (+++ inhibition at 10 μM) | 26 ± 15 | 42 ± 12 |
| Cn1c(N2CCCCS2(=O)=O)nc(C(=O)NCc2ccc(F)cc2)c(O)c1=O [Compound 72, reference compound] | ++ (++ inhibition at 20 μM) | + (+ inhibition at 60 μM) |  |  |  |  |  |  |
| O=c1ccc2ccccc2n1O [Compound 43] | − (− no inhibition at 60 μM) | + (+ inhibition at 60 μM) |  |  |  | − (− no inhibition at 60 μM) |  |  |
| CCn1cc(C(=O)O)c(=O)c2cc(Cc3ccccc3)c(OCCOC)cc21 [Compound 69] | ++ (++ inhibition at 20 μM) | + (+ inhibition at 60 μM) |  |  |  |  |  |  |
| CN(C)c1ccc(-c2c3cc(O)c(=O)cc-3oc3cc(O)c(O)cc23)cc1 [Compound 35] | +++ (+++ inhibition at 10 μM) |  | − (− no activity at 60 μM) | 38 ± 20 |  | +++ (+++ inhibition at 10 μM) | 27 ± 14 | 39 ± 9 |
| O=c1c(O)c(-c2ccc(O)c(O)c2)oc2cc(O)c(O)c(O)c12 [Compound 7] | − (− no inhibition at 60 μM) |  | − (− no activity at 60 μM) | 68 ± 24 |  | +++ (+++ inhibition at 10 μM) | 45 ± 19 | 56 ± 13 |
